Measurements: PMC8457121, “From Kinase Inhibitors to Multitarget Ligands as Powerful Drug Leads for Alzheimer's Disease using Protein‐Templated Synthesis” (Angewandte Chemie (International Ed. in English), 2021)

Key:
[1] = PAMPA-BBB test; type: in vitro ADME; conditions: for Papp at 2.5 h: read-out: Pe exp; for Solubility in the conditions of the PAMPA experiment: PBS pH 7.4 with 5% DMSO
Experimental: dissolved in 250 µL of DMSO (Sigma-Aldrich). 25 µL of these compound stock
solutions were taken and 225 µL of DMSO and 4750 µL of PBS pH 7.4 buffer
compound concentration in the range of 0.2 to 1.1 mM. Compounds to be
µL of DMSO and 4750 µL of PBS pH 7.4 was carefully added to afford a final
compound concentration in the range of 0.2 to 1.1 mM. Solutions were filtered
using filter PDVF membrane units (diameter 30 mm, pore size 0.45 μm, Symta).
10 µL of each solution were taken and diluted 10-fold with PBS/DMSO (95/5) for
HPLC-MS analysis. The acceptor 96-well plate (Multiscreen®, catalog no.
MAMCS9610, Millipore) was filled with 180 µL of PBS/DMSO (95/5). The donor
96-well plate (Multiscreen® IP Sterile Plate PDVF membrane, pore size is 0.45
M, catalog no. MAIPS4510, Millipore) was coated with 4 µL 20 mg·mL-1 of
for 5 min and then 180 µL of each compound solution was added. Then the donor
plate was put on the acceptor plate and kept for 2.5 h at room temperature. After
incubation, samples were collected from the acceptor plate and diluted 10-fold
with PBS/DMSO (95/5) for HPLC-MS analysis and compared to HPLC-MS of
initial solutions. Absorbance peak of each compound was determined by MS
detection and was used to calculate the concentration of compounds and
Every sample was analysed in two independent
runs. HPLC-MS was performed using a HPLC-MS equipment from Thermo
Fisher coupled to a Finnigan TM LXQ TM detector. Each compound was
analysed using a Sunfire column C18, 3.5 μm (50 mm x 4.6 mm) and acetonitrile
and Milli-Q water (with 0.1% formic acid) as mobile phase. The standard gradient

[2] = molecular target: T1, LRRK2 (Homo sapiens, UniProt Q5S007); test: LRRK2 inhibition enzymatic assay (Adapta, ThermoFisher); type: biochemical
T1 construct: purchased ThermoFisher (assay run by the company)
T1 sequence (Q5S007 whole entry): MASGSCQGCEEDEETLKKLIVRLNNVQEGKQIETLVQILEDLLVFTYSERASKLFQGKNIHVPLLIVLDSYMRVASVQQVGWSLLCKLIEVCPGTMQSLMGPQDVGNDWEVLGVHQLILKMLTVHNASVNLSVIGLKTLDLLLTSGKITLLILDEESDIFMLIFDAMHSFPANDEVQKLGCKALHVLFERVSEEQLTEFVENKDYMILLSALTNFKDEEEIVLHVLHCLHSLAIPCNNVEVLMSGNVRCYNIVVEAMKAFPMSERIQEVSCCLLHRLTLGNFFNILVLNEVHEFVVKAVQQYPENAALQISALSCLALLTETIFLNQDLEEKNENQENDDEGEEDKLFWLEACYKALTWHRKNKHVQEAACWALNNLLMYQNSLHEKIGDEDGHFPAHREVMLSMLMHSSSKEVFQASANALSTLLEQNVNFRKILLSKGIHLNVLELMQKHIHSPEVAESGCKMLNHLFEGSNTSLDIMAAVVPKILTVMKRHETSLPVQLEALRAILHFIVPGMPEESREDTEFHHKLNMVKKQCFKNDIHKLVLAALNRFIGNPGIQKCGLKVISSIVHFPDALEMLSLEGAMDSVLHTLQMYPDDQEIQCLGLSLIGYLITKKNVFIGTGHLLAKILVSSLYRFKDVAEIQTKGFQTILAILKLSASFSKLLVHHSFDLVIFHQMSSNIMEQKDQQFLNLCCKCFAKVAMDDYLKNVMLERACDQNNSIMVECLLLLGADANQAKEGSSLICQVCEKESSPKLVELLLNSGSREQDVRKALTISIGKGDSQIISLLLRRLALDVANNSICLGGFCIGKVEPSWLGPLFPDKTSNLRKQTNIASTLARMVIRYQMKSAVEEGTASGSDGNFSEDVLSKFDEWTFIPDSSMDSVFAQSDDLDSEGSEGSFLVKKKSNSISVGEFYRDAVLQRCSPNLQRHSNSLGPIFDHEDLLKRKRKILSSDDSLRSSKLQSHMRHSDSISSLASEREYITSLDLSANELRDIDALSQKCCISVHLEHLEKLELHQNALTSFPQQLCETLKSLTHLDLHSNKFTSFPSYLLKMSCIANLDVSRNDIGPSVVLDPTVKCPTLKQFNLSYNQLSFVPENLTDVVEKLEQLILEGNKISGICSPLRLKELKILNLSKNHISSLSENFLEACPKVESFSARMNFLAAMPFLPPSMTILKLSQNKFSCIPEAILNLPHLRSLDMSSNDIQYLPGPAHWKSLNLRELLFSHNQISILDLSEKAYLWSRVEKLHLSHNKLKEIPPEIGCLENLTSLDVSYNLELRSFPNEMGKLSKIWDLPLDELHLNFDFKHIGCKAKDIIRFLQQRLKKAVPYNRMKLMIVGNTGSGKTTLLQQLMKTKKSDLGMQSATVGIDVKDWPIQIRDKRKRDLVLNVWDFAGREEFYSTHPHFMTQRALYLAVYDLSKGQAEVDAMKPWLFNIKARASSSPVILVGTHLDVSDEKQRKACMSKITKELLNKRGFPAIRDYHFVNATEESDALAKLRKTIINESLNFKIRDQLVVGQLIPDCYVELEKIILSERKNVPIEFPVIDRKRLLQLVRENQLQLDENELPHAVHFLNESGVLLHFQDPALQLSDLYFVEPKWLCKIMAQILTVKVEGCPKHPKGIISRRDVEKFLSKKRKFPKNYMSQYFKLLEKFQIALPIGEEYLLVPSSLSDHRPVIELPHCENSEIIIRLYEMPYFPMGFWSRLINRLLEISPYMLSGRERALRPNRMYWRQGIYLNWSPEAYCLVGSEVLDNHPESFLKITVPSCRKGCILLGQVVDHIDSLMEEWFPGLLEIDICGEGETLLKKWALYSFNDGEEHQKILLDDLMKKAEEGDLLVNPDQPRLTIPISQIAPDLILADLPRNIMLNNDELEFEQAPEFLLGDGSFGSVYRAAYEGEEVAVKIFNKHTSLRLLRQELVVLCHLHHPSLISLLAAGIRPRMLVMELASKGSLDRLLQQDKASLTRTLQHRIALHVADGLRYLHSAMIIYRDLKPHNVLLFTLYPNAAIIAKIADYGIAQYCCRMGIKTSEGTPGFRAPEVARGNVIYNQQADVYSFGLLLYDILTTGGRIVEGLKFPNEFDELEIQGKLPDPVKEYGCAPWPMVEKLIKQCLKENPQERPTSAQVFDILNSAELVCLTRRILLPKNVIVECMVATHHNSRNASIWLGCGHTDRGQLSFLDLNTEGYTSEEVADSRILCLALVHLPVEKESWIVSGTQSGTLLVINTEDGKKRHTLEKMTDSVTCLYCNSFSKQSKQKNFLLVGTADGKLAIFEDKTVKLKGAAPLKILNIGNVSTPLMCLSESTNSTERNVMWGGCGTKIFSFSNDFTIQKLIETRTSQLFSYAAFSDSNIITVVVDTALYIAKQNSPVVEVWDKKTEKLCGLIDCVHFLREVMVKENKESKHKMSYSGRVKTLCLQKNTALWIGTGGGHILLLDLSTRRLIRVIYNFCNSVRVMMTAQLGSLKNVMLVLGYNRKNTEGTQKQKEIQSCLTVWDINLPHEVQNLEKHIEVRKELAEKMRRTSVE

[3] = molecular target: BACE1 (Homo sapiens, UniProt P56817); test: BACE1 enzymatic assay (FRET); type: biochemical
Sequence of BACE1 (P56817 46-501): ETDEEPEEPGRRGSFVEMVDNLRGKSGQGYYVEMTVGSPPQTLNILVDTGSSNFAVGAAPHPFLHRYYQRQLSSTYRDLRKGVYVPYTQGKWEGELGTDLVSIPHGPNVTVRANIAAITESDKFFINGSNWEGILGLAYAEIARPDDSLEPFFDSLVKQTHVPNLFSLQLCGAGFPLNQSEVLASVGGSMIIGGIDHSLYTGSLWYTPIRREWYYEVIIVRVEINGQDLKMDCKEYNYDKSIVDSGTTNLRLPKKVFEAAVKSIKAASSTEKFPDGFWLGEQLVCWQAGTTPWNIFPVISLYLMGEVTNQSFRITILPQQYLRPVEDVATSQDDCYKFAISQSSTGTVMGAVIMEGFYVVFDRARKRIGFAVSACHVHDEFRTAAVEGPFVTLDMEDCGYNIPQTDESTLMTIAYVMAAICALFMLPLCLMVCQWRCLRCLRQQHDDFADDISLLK
Experimental: BACE1 enzymatic assay. BACE1 in vitro assays were carried out using FRET.
μM) carrying the Swedish mutation and containing a rhodamine as a fluorescence donor and a quencher acceptor at each end was used. The intact substrate is weakly fluorescent and becomes highly fluorescent upon enzymatic cleavage.
The assays were conducted in 50 mM sodium acetate buffer, pH 4.5, in a final

[4] = molecular target: CK1δ (Homo sapiens, UniProt P48730); test: CK1δ inhibition enzymatic assay (Kinase-Glo); type: biochemical
Sequence of CK1δ (P48730 whole entry): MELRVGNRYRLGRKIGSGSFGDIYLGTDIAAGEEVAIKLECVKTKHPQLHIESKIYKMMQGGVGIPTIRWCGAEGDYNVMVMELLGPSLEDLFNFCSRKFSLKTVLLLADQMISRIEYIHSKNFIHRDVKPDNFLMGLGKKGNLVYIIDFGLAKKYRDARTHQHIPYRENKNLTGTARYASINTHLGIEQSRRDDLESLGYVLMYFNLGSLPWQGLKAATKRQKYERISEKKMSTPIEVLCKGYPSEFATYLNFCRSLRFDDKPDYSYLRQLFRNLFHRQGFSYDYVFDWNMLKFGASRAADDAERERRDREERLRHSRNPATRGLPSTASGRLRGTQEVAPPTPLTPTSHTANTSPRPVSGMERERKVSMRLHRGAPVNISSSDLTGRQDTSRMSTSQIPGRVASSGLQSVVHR
Experimental: CK1δ inhibition enzymatic assay. The “Kinase-Glo” Kit from Promega was used to screen compounds for activity against CK1δ Kinase-Glo assays were performed in assay buffer using black 96-well plates. In a typical assay, 10 μl of test compound (dissolved in DMSO at 1 mM concentration and diluted in advance in assay buffer to the desired concentration) 10 μl (16 ng) of enzyme were added to each well followed by 20 µl of assay buffer containing 0,1 % casein as substrate […]
exceed 1%. After 60-min incubation at 30°C the enzymatic reaction was stopped […]
with 40 μl of Kinase-Glo reagent. Glow-type luminescence was recorded after 10 min using a FLUOstar Optima (BMG Labtechnologies GmbH, Offenburg, Germany) multimode reader. The activity is proportional to the difference of the total and consumed ATP. The inhibitory activities were calculated on the basis of maximal activities measured in the absence of inhibitor. The IC50 was defined as the concentration of each compound that reduces a 50% the enzymatic activity with respect to that without inhibitors. […]
Ibérica SAU). Kinase-Glo Luminescent Kinase Assay was obtained from Promega (Promega Biotech Ibérica, SL). ATP and all other reagents were from Sigma Aldrich (St. Louis, MO). Assay buffer contained 50 mM HEPES (pH 7.5), 1 mM EDTA, 1 mM EGTA, and 15 mM magnesium acetate. […]

[5] = set-up: method as in earlier work; conditions: PAMPA-BBB reported permeability ref 2; cited from earlier work
[6] = molecular target: T2, Human recombinant GSK3β (Homo sapiens, UniProt P49841); test: GSK3β inhibition enzymatic assay (Kinase-Glo); type: biochemical
T2 construct: purchased Millipore (Millipore Ibérica SAU)
T2 sequence (P49841 whole entry): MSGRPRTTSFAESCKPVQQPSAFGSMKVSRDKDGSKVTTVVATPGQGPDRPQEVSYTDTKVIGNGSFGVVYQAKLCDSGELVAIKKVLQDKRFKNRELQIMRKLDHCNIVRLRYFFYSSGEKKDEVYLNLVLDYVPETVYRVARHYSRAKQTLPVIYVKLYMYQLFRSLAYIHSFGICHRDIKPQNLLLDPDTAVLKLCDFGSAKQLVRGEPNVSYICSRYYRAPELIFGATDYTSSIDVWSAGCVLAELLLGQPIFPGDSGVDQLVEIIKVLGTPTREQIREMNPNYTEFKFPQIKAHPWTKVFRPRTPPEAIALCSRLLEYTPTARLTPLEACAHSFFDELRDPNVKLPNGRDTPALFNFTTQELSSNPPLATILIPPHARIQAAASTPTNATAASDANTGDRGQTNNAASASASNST
Experimental: GSK3β inhibition enzymatic assay. Human recombinant GSK3β and the pre-phosphorylated polypeptide substrate were purchased from Millipore (Millipore Ibérica SAU). Kinase-Glo Luminescent Kinase Assay was obtained from Promega (Promega Biotech Ibérica, SL). ATP and all other reagents were from Sigma Aldrich (St. Louis, MO). Assay buffer contained 50 mM HEPES (pH 7.5), 1 mM EDTA, 1 mM EGTA, and 15 mM magnesium acetate.
Kinase-Glo assays were performed in assay buffer using black 96-well plates. In a typical assay, 10 μL (10 μM) of test compound (dissolved in DMSO) at 1 mM concentration and diluted in advance in assay buffer to the desired concentration) and 10 μL (20 ng) of enzyme were added to each well followed by 20 μL of assay buffer containing 25 μM substrate and 1 μM ATP. The final DMSO concentration […]
After 30 min incubation at 30 °C, the enzymatic reaction was stopped with 40 μL of Kinase-Glo reagent. Glow-type luminescence was recorded after 10 min using a FLUOstar Optima (BMG
Labtechnologies GmbH, Offenburg, Germany) multimode reader. The activity is proportional to the difference of the total and consumed ATP. The inhibitory activities were calculated based on maximal activities measured in the absence of inhibitor. The IC50 was defined as the concentration of each compound that reduces a 50 % the enzymatic activity with respect to that without inhibitors. […]

[7] = tested on: SK-APP cells; test: Aβ40 and Aβ42 levels in SK-APP cells (sandwich ELISA); type: cell-based, human; conditions: 10 μM, 48 h treatment
Experimental: page 35: enzyme concentration (1 U/mL). Inhibitor screening at 10 μM. The mixture was incubated for 60 min at 25 °C under dark conditions and then stopped with 2.5 M sodium acetate. Fluorescence was measured with a FLUOstar Optima (BMG Labtechnologies GmbH, Offenburg, Germany) microplate reader at 545 nm excitation and 585 nm emission. Evaluation of BACE Inhibitors Kinetics. To evaluate the mechanism of BACE1 inhibition of the compounds, substrate-dependent kinetic experiments were performed. BACE activity were measured at five different concentrations substrate (1000 -62,5 μM) in the absence or presence of the select inhibitor at two different concentrations. The results are presented as double reciprocal Lineweaver-Burk plots (1/V vs 1/[S]) Figure S1. Cell culture and treatments. SK-N-MC cells stably expressing the human isoform APP695 (SK-APP cell line […]1) were generated by transfection of SK-N-MC cells with a pCDNA3-APP expression vector, and kindly provided by Dr. MJ Bullido. These cells were cultured in DMEM (Thermo Fisher) medium supplemented with 10% FBS (Thermo Fisher), 1 mM glutamine (Sigma- Aldrich), and 100 unit/ml penicillin (Lonza) and […] streptomycin (Lonza). Cell cultures were maintained in a 5% CO2, humidified atmosphere at 37 °C. SH-SY5Y cells were obtained from the American Type Culture Collection and grown in DMEM media (Gibco), supplemented with 10% foetal bovine serum, and 1% penicillin/streptomycin (Invitrogen). The cells were grown at 37 °C in a humidified 5% CO2 atmosphere. For the treatments, all the compounds were dissolved in dimethyl sulfoxide (DMSO, from Sigma) at an initial stock concentration of 10 mM. […] working solutions were obtained from the dilution of the stock solutions in DMEM media (DMSO control solutions were prepared similarly to the compounds). Okadaic acid (OA, Sigma-Aldrich) was dissolved in DMSO at an initial stock concentration of 60 μM and a 250X working solution was obtained from the dilution of the stock solution in DMEM. All the compounds (250x solutions) were added directly into the wells at the indicated final concentrations for 1 hour before the treatment with OA at a final concentration of 30 nM. DMSO was added at the appropriate concentration to the 34 page 36: control-untreated cells. The cells were maintained in the presence of the OA and the different compounds for 24h. Measurement of cell viability. Cell viability assays were carried out using a 3- […] (Sigma-Aldrich) in 96-well cell culture plates. All cells were then incubated with a 0.5 mg/ml MTT solution (Sigma-Aldrich) at 37 °C for 4 h and then with cell lysis […] The absorbance values were determined at 590 nm. Cell viability was expressed as a percent of OD of control cells, the value of which was defined as 100%. Cell viability in SH-SY5Y were carried out following the same procedure but seeding the cells in 24 well multiplates. Absorbance was measured using a Varioskan Flash multiplate reader (Thermo Scientific) at test 550 nm and reference 664 nm wave-lengths. Compound concentration for SK-APP line was 10 μM and for the SH-SY5Y was 1 and 5 μM. Immunoassays. Levels of Aβ40 and Aβ42 were quantified by sandwich ELISAs (Wako, Osaka, Japan) from cellular lysates and conditioned media collected. CNS penetration: in vitro PAMPA-BBB test. Prediction of the brain penetration was evaluated using a parallel artificial membrane permeability assay (PAMPA).1 Nine quality control compounds (mentioned below) of know BBB permeability were included in each experiment to validate the analysis set.2 Commercial drugs […] dissolved in 250 μL of DMSO (Sigma-Aldrich). 25 μL of these compound stock solutions were taken and 225 μL of DMSO and 4750 μL of PBS pH 7.4 buffer were added to reach 5% of DMSO concentration in the experiment and a final […] Compounds to be determined their ability to pass the brain barrier (0.5-1 mg) were dissolved in 250 μL of DMSO and 4750 μL of PBS pH 7.4 was carefully added to afford a final […]

[8] = tested on: SH-SY5Y cells; test: Okadaic acid-induced cell death model, viability of SH-SY5Y cells; type: cell-based, human; conditions: OA 30 nM, 24 h, compound 1 and 5 µM
Experimental: (§1) page 35: enzyme concentration (1 U/mL). Inhibitor screening at 10 μM. The mixture was incubated for 60 min at 25 °C under dark conditions and then stopped with 2.5 M sodium acetate. Fluorescence was measured with a FLUOstar Optima (BMG Labtechnologies GmbH, Offenburg, Germany) microplate reader at 545 nm excitation and 585 nm emission. Evaluation of BACE Inhibitors Kinetics. To evaluate the mechanism of BACE1 inhibition of the compounds, substrate-dependent kinetic experiments were performed. BACE activity were measured at five different concentrations substrate (1000 -62,5 μM) in the absence or presence of the select inhibitor at two different concentrations. The results are presented as double reciprocal Lineweaver-Burk plots (1/V vs 1/[S]) Figure S1. Cell culture and treatments. […] The absorbance values were determined at 590 nm. Cell viability was expressed as a percent of OD of control cells, the value of which was defined as 100%. […] Absorbance was measured using a Varioskan Flash multiplate reader (Thermo Scientific) at test 550 nm and reference 664 nm wave-lengths. […] Levels of Aβ40 and Aβ42 were quantified by sandwich ELISAs (Wako, Osaka, Japan) from cellular lysates and conditioned media collected. […] Compounds to be determined their ability to pass the brain barrier (0.5-1 mg) were dissolved in 250 μL of DMSO and 4750 μL of PBS pH 7.4 was carefully added to afford a final […]

[9] = tested on: SK-APP cells; test: Cell viability (MTT) in SK-APP cells; type: cell-based, human; conditions: 10 μM, 48 hours
Experimental: as §1

[10] = PAMPA-BBB, PBS pH 7.4/DMSO 95/5, 2.5 h, room temperature

Compound	Papp at 2.5 h [1, 10] [×10⁻⁶ cm/s]	IC50 [4] [µM]	IC50 [3] [µM]	IC50 [2] [µM]	CNS prediction ([1]; PAMPA-BBB)	further results
Cn1c(=O)c2c(ncn2C)n(C)c1=O [Caffeine, caffeine, reference compound]	1.45 ± 0.26					
O=C(Nc1nc2ccccc2s1)c1ccc(CCn2cc(COc3ccc(C(=O)Nc4nc5ccccc5s4)cc3)nn2)cc1 [compound 33]						inhibition at 10 µM ([2]; read-out: LRRK2 enzyme inhibition at 10 μM): 98%; inhibition at 10 µM ([3]; read-out: BACE1 enzyme inhibition at 10 μM): < 20%
O=C(Cc1ccccc1)Nc1nc2ccccc2s1 [MBC-858, reference compound]		0.33 ± 0.03	> 20			
CN1C(C(=O)Nc2ccccn2)=C(O)c2ccccc2S1(=O)=O [Piroxicam, piroxicam, reference compound]	2.92 ± 0.37					Pe Bibl. [5]: 2.5 10-6 cm s-1
CCn1sc(=O)n(Cc2cn(Cc3ccc(C(=O)Nc4nc5ccccc5s4)cc3)nn2)c1=O [compound 14]			3.31 ± 0.27	0.82 ± 0.14	CNS- (CNS‐ (red) for compounds with Pe <1.88×10^−6 cm s^−1)	IC50 [6]: 2.36 ± 0.27 µM; Aβ42 levels in cellular lysates (intracellular) [7]: unchanged; Aβ42 levels in extracellular fluid [7]: significant decrease; Neuroprotection against okadaic acid (OA) toxicity [8]: rescue from the toxic effect of OA; Pe exp [1, 10]: 0 10-6 cm s-1
CCOC(=O)c1sc(NC(=O)Cc2ccc(OCc3cn(Cc4ccc(CC(=O)Nc5nc6ccccc6s5)cc4)nn3)cc2)nc1C [compound 31]		5.4 ± 0.91	6.76 ± 0.61			inhibition at 10 µM ([6]; read-out: GSK3β enzyme inhibition at 10 μM): 26%; Solubility in the conditions of the PAMPA experiment [1]: insoluble
O=C(Cc1ccc(Cn2cc(COc3ccc(C(=O)Nc4nc5ccccc5s4)cc3)nn2)cc1)Nc1nc2ccccc2s1 [compound 17]			2.51 ± 0.43	7.09 ± 2.22		inhibition at 10 µM ([4]; read-out: CK1δ enzyme inhibition at 10 μM): 26%; Cell viability of SK-APP cells [9]: significant decrease; Solubility in the conditions of the PAMPA experiment [1]: insoluble
O=C(Cc1ccc(Cn2cc(COc3ccc(/N=C4\C(=O)Nc5ccccc54)cc3)nn2)cc1)Nc1nc2ccccc2s1 [compound 16]	3.07 ± 0.25	6.47 ± 0.68	7.24 ± 0.38	13.5 ± 5.23	CNS+/CNS- (CNS+/CNS‐ (yellow) for compounds with Pe between both values)	Cell viability of SK-APP cells [9]: significant decrease
O=C(Cc1ccc(OCc2cn(Cc3ccc(C(=O)Nc4nc5ccccc5s4)cc3)nn2)cc1)Nc1nc2ccc(C(F)(F)F)cc2s1 [compound 28]	0.65 ± 0.18	0.4 ± 0.06	7.21 ± 0.35	0.71 ± 0.26	CNS- (CNS‐ (red) for compounds with Pe <1.88×10^−6 cm s^−1)	
